“Also recorded” adds a separate entry of the source.
Tests used:
H-ferritin = assay: Ferritin in nuclear and cytoplasmic fractions after DFO, alloxan and FAC treatments (Western blot); assay type: cell-based, human; conditions: SW1088 cells
Excerpt: FIGS. 9A-9C show nuclear import of ferritin is inhibited by alloxan, whereas cytoplasmic levels of ferritin are not affected. Under resting conditions, SW1088 cells contain ferritin in both nuclear and cytoplasmic compartments. […] The reappearance of ferritin in cytoplasmic and nuclear compartments after DFO treatment (alone) or treatment with DFO+alloxan is affected by the presence of alloxan (alx) and/or FAC in the culture medium. FIG. 9A is a schematic illustration of the experimental procedure, showing the time course of changes in culture conditions. FIG. 9B is a scan of Western blots of nuclear (N) and cytoplasmic (C) extracts of SW1088 cells, resolved by SDS/PAGE. Samples of the nuclear extract contained 20 μg of total protein, whereas samples of the cytoplasmic extract contained […] of total protein. Ferritin was detected with HS-59 mouse monoclonal antibody and horseradish peroxidase-conjugated goat anti-mouse IgG. Lane a, extracts from cells cultured in medium containing 100 μM DFO; lane b, extracts of cells cultured in normal medium; lane c, extracts of cells cultured in 100 μM FAC; lane d, extracts of cells cultured in 100 μM DFO+1 mM alloxan; lane e, extracts of cells cultured in normal medium supplemented with 1 mM alloxan; lane f, extracts of cells cultured in medium supplemented with 100 μM FAC+1 mM alloxan. FIG. 9C is a graph showing a summary of ferritin contents. The relative amounts of ferritin in the nuclear (black bars) and cytoplasmic (striped bars) fractions were measured after an initial treatment with DFO alone or DFO+[…] and a subsequent culture in the presence of DFO alone, normal medium, medium supplemented with FAC, medium supplemented with DFO+alloxan, normal medium+alloxan or normal medium+FAC and alloxan. The relative amounts of ferritin are normalized to the amount of ferritin in the corresponding fractions before the initial DFO treatment.
DFO and alloxan treatments: The iron chelator DFO was used to examine the effect of iron chelation on ferritin localization in the nuclei of astrocytoma cells. Cells were cultured in the presence of 100 μM DFO for 72 h. Alloxan, an inhibitor of O-glycosylation, was used in astrocytoma cell cultures at final concentrations of 0.1 and 1.0 mM. Six cultures were established in parallel and allowed to reach 80% confluence. The first three were treated with 100 μM DFO for 72 h, then rinsed in Hanks balanced salt solution to remove the free DFO and returned to standard medium alone or to a medium containing 0.1 mM FAC (ferric ammonium citrate) or 0.1 mM DFO. After these treatments, culturing was continued for 24 h. Another set of three cultures were treated with 100 μM DFO+1 mM alloxan for 72 h. The cells were rinsed in Hanks balanced salt solution to remove free reagents and returned to standard medium containing 1 mM alloxan or a medium containing 0.1 mM FAC+[…] or a medium containing 100 μM DFO+1 mM alloxan. After these treatments, the culturing was continued for 24 h. At the end of the culture period, cells were harvested and nuclear and cytosolic fractions were prepared as described below.
Nuclear and cytosolic fractions: Plated astrocytoma cells were rinsed in Hanks balanced salts, trypsinized and the cells were collected by centrifugation (800 g for 10 min). The pelleted cells were rinsed twice in ice-cold PBS buffer [0.01 M sodium phosphate (pH 7.4 at 25° C.), 138 mM NaCl and 2.7 mM KCl] and collected by centrifugation. The cell pellets were resuspended in 20 vol. of 10 mM Hepes (pH 7.9 at 25° C.), 1.5 mM MgCl2, 10 mM NaCl and 0.5 mM DTT (dithiothreitol) containing the following protease inhibitors: AEBSF (1 mM), aprotinin (0.8 μM), leupeptin (20 μM), bestatin (40 μM), pepstatin (15 μM) and E-64 (14 μM). Cell suspensions were incubated in ice for 30 min and collected by centrifugation. […]

[1] = tested on: SW1088 human astrocytoma cells; assay: Cell viability assay (MTT) of alloxan-treated cells; assay type: cell-based; conditions: alloxan up to 1.0 mM, 96 h
Protocol: (§1) FIG. 10 is a graph showing alloxan inhibits protein O-glycosylation in SW1088 human astrocytoma cells. Cells were grown in triplicate independent cultures in the presence of 0, 100, 500 μM and 1 mM concentrations of alloxan. Aliquots of whole cell lysates from each culture were applied to a nitrocellulose membrane using a vacuum slot blot device. The membrane was blocked in a 5% solution of non-fat dry milk at 21±1° C. for 1 h and incubated overnight with mouse monoclonal anti-O-GlcNAc antibody. Immunocomplexes were detected and quantified. As an internal control for this assay, membrane loadings of 1 (♦), 5 (▪) and 10 (▴) μg of total protein were tested and they gave similar responses to changes in the concentration of alloxan in the original cultures.
(§2) Cell viability assay: Cell viability measurement was performed using the reagent 3-(4,5-dimethylthiazol-2-yl)-2,5-diphenyl-2H-tetrazolium bromide (MTT), obtained from Roche Applied Science (Indianapolis, Ind., U.S.A.). The assay was performed according to the manufacturer's instructions.
(§3) The effect of alloxan on ferritin redistribution is probably due to its influence on protein glycosylation or due to some other currently unknown effect. […] The cells were then harvested and total soluble proteins were analyzed by slot blot for O-glycosylation.

[2] = as above; assay type: cell-based, human; conditions: human, SW1088 astrocytoma cells, 1 mM alloxan, read-out: cells remaining viable (MTT)
Protocol: as §1, §2, §3

[3] = biological target: recombinant human H-ferritin (rH-ferritin) (Homo sapiens, UniProt P02794); assay: Supercoil relaxation assay for iron release from ferritin; assay type: biochemical; conditions: rH-ferritin with or without 1 mM alloxan
Protocol: Supercoil-relaxation assays were performed with pUC19 plasmid DNA (0.5 μg/assay). FIG. 11A is a scan showing electrophoretic profiles of pUC19 DNA incubated in the presence of recombinant H-ferritin (lanes a-e), recombinant H-ferritin+1 mM alloxan (lanes f-j) and 1 mM alloxan alone (lanes k-o). Reaction times were as indicated. Lane p, a sample of the superhelical pUC19 DNA that was not treated with ferritin. Band assignments: R, relaxed circle form; SC, superhelical topoisomers. FIG. 11B is a graph showing the mole fraction of superhelical DNA as a function of the reaction time for samples containing rH-ferritin (♦), rH-ferritin+1 mM alloxan (▪) and 1 mM alloxan alone (▴). Error bars represent S.D. values.
Supercoil relaxation assay: DNA backbone breakage was detected using a superhelical DNA relaxation assay (Tachon, P. (1989) Free Radical Res. Commun. 7, 1-10; Crowe, A. and Morgan, E. H. (1992) Brain Res. 592, 8-16). The reaction mixtures (30 μl) contained covalently closed circular pUC19 DNA (0.5 μg; Sigma) dissolved in 10 mM Hepes (pH 7.5), 50 mM NaCl, 2.5 mM MgCl2 and 2.5 mM DTT. […] The mole fractions of superhelical and relaxed forms were measured by densitometry of photographic negatives of the gels after staining with 0.5 μg/ml ethidium bromide. […]

[4] = tested on: protein O-glycosylation in SW1088 human astrocytoma cells; assay: Detection of O-glycosylated proteins by slot blot with anti-O-GlcNAc antibody; assay type: cell-based; conditions: SW1088 cells, 0, 0.1, 0.5 and 1.0 mM alloxan for 96 h
Protocol: as §1, with “As an internal control for this assay, membrane loadings of 1 (♦), 5 (▪) and 10 (▴) μg of total protein were tested and they gave similar responses to changes in the concentration of alloxan in the original cultures.” left out
Detection of glycosylated proteins: SW1088 cultures were treated with different concentrations of alloxan for 96 h. […] Protein concentrations were measured and aliquots containing 1, 5 and 10 μg of total cell proteins were applied in triplicate to a 0.2 μm nitrocellulose membrane (Amersham Biosciences). […] Immunocomplexes were detected using peroxidase-conjugated goat anti-mouse IgG (Sigma) and visualized with the ECL+kit (Amersham Biosciences). […]
as §3

primary rat astrocytes = assay: Longevity of transfected astrocytes (MTT); assay type: cell-based
Protocol: FIG. 15 is a graph showing the results of the longevity of transfected astrocytes versus control. Cells were transfected and then plated at equal density.
Cells were transfected and then plated at equal density. The longevity experiments were performed in two ways. First, cell viability was monitored in cultures in which the media was changed every seven days. In the second experiment, the media was not changed for 30 days to test nutrient deprivation. An MTT assay was performed on randomly selected cell cultures from 24 well plates every two weeks to monitor cell viability. […] The non-transfected astrocytes, however, die at an increased rate compared to the ferritin transfected cells. We have continued the study out to five months on the transfected cells, but none of the non-transfected cells are alive.
Thirdly, the non-NLS ferritin translocated to the nucleus over time.

rat primary astrocytes = assay: Cytotoxicity of iron compound TMHF on transfected astrocytes (MTT); assay type: cell-based; conditions: three concentrations of TMHF
Protocol: FIG. 16 is a graph showing the cytotoxicity profile of stress factors on rat primarily astrocytes transfected with NLS and non-NLS H ferritin construct. Cytotoxicity was determined by MTT assay after treatment with three different concentrations of soluble iron compound 3,5,5-trimethyl (hexanoyl) ferrocene (TMHF). A total of 12 trials were run in triplicate for each sample and the grand mean and SE are reported.
Cytotoxicity was determined by MTT assay after treatment with three different concentrations of soluble iron compound 3,5,5-trimethyl (hexanoyl) ferrocene (TMHF). A total of 12 trials were run in triplicate for each sample and the grand mean and SE are reported. […] Other common stressors (hydrogen peroxide, cytokines, hypoxia) will also be examined.

[5] = 100 μM DFO+1 mM alloxan in the initial growth period, then fresh medium

Sequence of recombinant human H-ferritin (rH-ferritin) (P02794 whole entry): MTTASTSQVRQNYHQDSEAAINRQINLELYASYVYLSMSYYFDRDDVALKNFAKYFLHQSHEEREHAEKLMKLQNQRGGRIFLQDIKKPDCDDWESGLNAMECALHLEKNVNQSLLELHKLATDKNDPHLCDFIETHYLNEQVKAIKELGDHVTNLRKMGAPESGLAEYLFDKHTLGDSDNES

## CC(=O)N(O)CCCCCNC(=O)CCC(=O)N(O)CCCCCNC(=O)CCC(=O)N(O)CCCCCN [DFO, desferoxamine]
H-ferritin; 100 μM DFO
  ferritin content in nuclear and cytoplasmic compartments: significantly decreases ferritin content in both compartments

## O=C1NC(=O)C(=O)C(=O)N1 [alloxan]
[1]
  effect on cell viability: did not affect cell viability; also recorded: without significant effects on cell viability
[2]
  viability at 96 h, 1 mM: 87 ± 3%
H-ferritin; [5]
  cytoplasmic ferritin after DFO treatment (reappearance): remained essentially unchanged
  reappearance of nuclear ferritin after DFO treatment: inhibited
H-ferritin; 100 μM DFO+1 mM alloxan in the initial growth period, then fresh medium, listed as Alloxan
  cytoplasmic ferritin after DFO treatment (reappearance): no effect
H-ferritin; 100 μM FAC+1 mM alloxan
  FAC-induced increase in nuclear ferritin: blocked
  FAC-induced increase of cytoplasmic ferritin: not the increase of cytoplasmic ferritin
H-ferritin; DFO + alloxan
  disappearance of ferritin from the nuclear fraction when DFO is added: does not prevent
[3]
  iron release from ferritin (DNA nicking of pUC19): does not effect the rate or amount of iron release from ferritin; also recorded: does not cause a significant release of iron from ferritin
[4]
  total amount of O-glycosylated protein: decreases the total amount of O-glycosylated protein in a dose-dependent manner

## ferric ammonium citrate [FAC]
H-ferritin; 100 μM FAC added to standard medium after DFO
  increase in nuclear and cytoplasmic ferritin contents relative to levels found in untreated cells: approx. 200%

## ferritin
Primary rat astrocytes; media changed every seven days
  survival of transfected cells, media changed: three months
Primary rat astrocytes; nutrient deprivation, media not changed
  survival of transfected cells, media not changed: 30 days
Rat primary astrocytes
  ability of astrocytes to withstand iron induced stress: increases the ability of primary astrocytes to withstand iron induced stress
